Test results reported in ChEMBL document CHEMBL1156080, “Small molecule inhibitors of Myc/Max dimerization and Myc-induced cell transformation” (Bioorg Med Chem Lett, 2009).
Calls of active or inactive are those of the source. No cut-off for these calls is given here.

Assays:
[1] = Inhibition of Myc/Max heterodimerization at 20 uM by FRET assay
[2] = target: Proto-oncogene tyrosine-protein kinase Src (Gallus gallus) (UniProt P00523); experiment: Inhibition of Src-mediated oncogenic transformation in chicken embryo fibroblasts
[3] = target: Transcription factor Jun (Gallus gallus) (UniProt P18870); experiment: Inhibition of Jun-mediated oncogenic transformation in chicken embryo fibroblasts
[4] = organism: Gallus gallus; experiment: Inhibition of Myc/Max heterodimerization in chicken embryo fibroblasts assessed as inhibition of oncogenically transformed cell foci formation at 20 uM
[5] = Cytotoxicity against chicken embryo fibroblasts; design: species or system Gallus gallus

Sequence of Transcription factor Jun (Gallus gallus) (P18870 whole entry): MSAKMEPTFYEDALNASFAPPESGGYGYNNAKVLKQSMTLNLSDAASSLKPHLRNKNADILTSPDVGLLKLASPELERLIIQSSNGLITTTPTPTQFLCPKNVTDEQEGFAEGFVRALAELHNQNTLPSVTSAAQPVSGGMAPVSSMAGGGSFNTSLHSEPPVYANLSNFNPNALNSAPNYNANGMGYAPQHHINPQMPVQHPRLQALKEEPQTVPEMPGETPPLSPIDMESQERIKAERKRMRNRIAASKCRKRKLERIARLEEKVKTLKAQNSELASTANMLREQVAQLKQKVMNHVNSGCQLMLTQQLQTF

Compound | inhibition [1] | inhibition [2] | inhibition [3] | inhibition [4] | Activity [5]
CNC(=O)[C@@H]1CN(C(=O)CCCNC(=O)OC(C)(C)C)C[C@H]1C(=O)NC[C@H](NS(=O)(=O)c1cc(Cl)sc1Cl)C(=O)OC(C)(C)C | 8% | inactive | inactive | Active | 
CCCCS(=O)(=O)N[C@@H](CNC(=O)[C@@H]1CN(C(=O)CCCCCNC(=O)OC(C)(C)C)C[C@H]1C(=O)O)C(=O)OC(C)(C)C | 72% | inactive | inactive | Active | 
CNC(=O)[C@@H]1CN(C(=O)CCC2CCN(C(=O)OC(C)(C)C)CC2)C[C@H]1C(=O)NC[C@H](NS(=O)(=O)CCc1cccc2ccccc12)C(=O)OC(C)(C)C | 43% | inactive | inactive | Active | 
CN(C)c1cccc2c(S(=O)(=O)N[C@@H](CNC(=O)[C@@H]3CN(C(=O)CCC4CCN(C(=O)OC(C)(C)C)CC4)C[C@H]3C(=O)O)C(=O)OC(C)(C)C)cccc12 | 75% | inactive | inactive | Active | 
CNC(=O)[C@@H]1CN(C(=O)CCCCCNC(=O)OC(C)(C)C)C[C@H]1C(=O)NC[C@H](NS(=O)(=O)c1cc(Cl)sc1Cl)C(=O)OC(C)(C)C [MYCMYCIN 2] | 18% |  | inactive | Active | Non-toxic
CNC(=O)[C@@H]1CN(C(=O)CCC2CCN(C(=O)OC(C)(C)C)CC2)C[C@H]1C(=O)NCCC(=O)OC(C)(C)C | 30% | inactive | inactive | Active | 
CNC(=O)[C@@H]1CN(C(=O)CCCCCNC(=O)OC(C)(C)C)C[C@H]1C(=O)NC[C@H](NS(=O)(=O)CCc1cccc2ccccc12)C(=O)OC(C)(C)C | 24% | inactive | inactive | Active | 
Cc1cc(C)c(S(=O)(=O)N[C@@H](CNC(=O)[C@@H]2CN(C(=O)CC3CCN(C(=O)OC(C)(C)C)CC3)C[C@H]2C(=O)O)C(=O)OC(C)(C)C)c(C)c1 [MYCMYCIN 1] | 66% | inactive |  | Active | Non-toxic
